In publication PMC12459020, “Chemical Probes that Target a Dissociative LuxR-Type Quorum Sensing Receptor in Gram-Negative Bacteria” (ACS Chemical Biology, 2025):
“Also recorded” adds a separate entry of the source. Like-named read-outs stand apart in the source and are kept apart here.

How the values were obtained:
EsaR [1] = target: T1, EsaR (Pantoea stewartii subsp. stewartii, UniProt P54293); experiment: cell-based; conditions: for activation at 100 µM / inhibition at 100 µM: 3.5 h; for activation at 100 µM: read-out: EsaR-activated (pesaS) [%] agonism; for inhibition at 100 µM: read-out: EsaR-activated (pesaS) antagonism; for EsaR agonism, in words: E. coli EsaR reporters, primary screen at 100 μM
T1 construct: expressed in transfected cells; host or cells: E. coli JLD271 (K12 ΔsdiA), arabinose-induced pJN105-esaR
T1 sequence (P54293 whole entry): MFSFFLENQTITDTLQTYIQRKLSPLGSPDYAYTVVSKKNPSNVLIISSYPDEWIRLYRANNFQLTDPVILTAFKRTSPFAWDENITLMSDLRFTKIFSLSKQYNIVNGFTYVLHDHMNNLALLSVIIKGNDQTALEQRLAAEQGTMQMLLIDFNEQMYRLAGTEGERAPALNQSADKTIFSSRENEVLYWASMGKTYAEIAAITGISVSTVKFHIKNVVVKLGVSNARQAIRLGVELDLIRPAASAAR
Text: (§1) EsaR transcriptional activation and repression were examined using E. coli and P. stewartii reporters (strains and plasmids listed in Table S1; see Methods section for assay details). […] We constructed reporters in E. coli based on previously reported EsaR reporters (Table S1). Each strain contained an EsaR expression plasmid (pJN105-esaR) and a reporter plasmid with either an EsaR-activated promoter (pesaS) or an EsaR-repressed promoter (pesaR) upstream of luxABCDE or GFP.
(§2) Gibson assembly was used to create all constructs. Plasmid pJN105-esaR was created by amplifying esaR from pAC-esaR and inserting it into pJN105. pesaSlux was created by inserting pesaS, amplified from pPesaR-AC:gfp, into the pCS-pesaRlux backbone. The pesaR promoter was amplified from pCS-pesaRlux and inserted into the pPesaR-AC:gfp backbone to create pesaR:GFP. P. stewartii reporter strains were created by transforming pesaR:GFP or pPesaR-AC:gfp into ESN51 by conjugation using E. coli S17 λpir as the donor strain. See SI for details of E. coli ExpR2 reporter construction.
(§3) Overnight cultures were diluted 1:10 in LB medium with appropriate antibiotics and grown at 37 °C (200 rpm) to an OD600 of 0.22–0.27 before induction with 4 mg mL^–1 arabinose. OD600 was measured by placing 200 μL of culture into a 96-well plate and reading optical density using the BioTek Synergy 2 plate reader. Assays were performed in technical triplicate in clear-bottom, white and clear-bottom, black 96-well microtiter plates (Corning Costar 3903 and 3904) for luminescence and fluorescence reporters, respectively. Compounds were dissolved in DMSO, and 2 μL of this stock, or DMSO as a negative control, was added to each well prior to adding 198 μL of induced culture. Plates were incubated at 37 °C (200 rpm) for 3.5 h. Each well was mixed by pipetting before reading OD600 and either luminescence or fluorescence. Single-point screens were performed with one or two biological replicates, and all dose–response curves were performed in biological triplicate. EC50 values were calculated based on a nonlinear regression of log(concentration) vs response (three parameters) using GraphPad Prism 9 software.

EsaR [2] = target: T1, EsaR; experiment: cell-based; conditions: for activation at 100 µM / inhibition at 100 µM: 3.5 h; for activation at 100 µM: read-out: EsaR-repressed (pesaR) [%] agonism; for inhibition at 100 µM: read-out: EsaR-repressed (pesaR) antagonism
Text: as §1, §2, §3

LuxR = conditions: cited from earlier work; for LuxR antagonism: 5 µM compound against 5 µM OHHL, negative values indicate potential activators, ref 6 (SI; Palmer et al., 2011); for LuxR [%] (agonism, activation): compounds at 200 μM, luminescence in V. fischeri ES114 (ΔluxI), ref Palmer et al., 2011 (main ref 44, SI ref 6)
ExpR1 = conditions: cited from earlier work; for ExpR1 antagonism: 5 µM compound against 5 µM OHHL, negative values indicate potential activators, ref 6 (SI; Palmer et al., 2011); for ExpR1 [%] (agonism, activation): compounds at 200 μM, cellulase activity in P. versatile AC5117, ref Palmer et al., 2011 (main ref 44, SI ref 6)
ExpR2 = conditions: cited from earlier work; for ExpR2 antagonism (percent inhibition): 5 µM compound against 5 µM OHHL, negative values indicate potential activators; for ExpR2 [%] (agonism, percent activation): compounds at 200 μM, cellulase activity in P. versatile AC5099, ref Palmer et al., 2011 (main ref 44, SI ref 6)
[3] = ref 6 (SI; Palmer et al., 2011)

SMILES | activation at 100 µM (EsaR [1]) [%] | inhibition at 100 µM (EsaR [1]) [%] | EsaR agonism, in words (EsaR [1]) | activation at 100 µM (EsaR [2]) [%] | inhibition at 100 µM (EsaR [2]) [%] | LuxR antagonism (LuxR) [%] | LuxR [%] (agonism, activation) (LuxR) | ExpR1 antagonism (ExpR1) [%] | ExpR1 [%] (agonism, activation) (ExpR1) | ExpR2 antagonism (percent inhibition) (ExpR2; [3]) [%] | ExpR2 [%] (agonism, percent activation) (ExpR2) | IC50 (ExpR2; previously reported phenotypic reporter data, ref 6 (SI; Palmer et al., 2011)) [µM] | EC50 (EsaR [1]) [µM] | EC50 (EsaR [2]) [µM] | fold less potent than OHHL in EsaR (EC50 ratio) (EsaR [1]; E. coli EsaR-activated reporter EC50 values) [fold]
CCCCCCCCCC(=O)CC(=O)N[C@H]1CCOC1=O [OdDHL, 3-(oxo)-dodecanoyl HL, reference compound] | 34 | -45 | agonized EsaR | 26 | -10 | 86 | 2 | 85 | 2 | 73 | 17 | 0.75 |  |  | 
CCCCCC(=O)N[C@H]1CCOC1=O [HHL, hexanoyl HL, reference compound] | 100 | -96 | strongly activated | 98 | -126 | 69 | 2 | 67 | 5 | 12 | 94 |  |  |  | 
O=C(Cc1ccc2ccccc2c1)N[C@H]1CCOC1=O [E12] | 0 | -10 |  | 7 | 37 | 83 | 2 | 58 | 8 | 5 | 56 |  |  |  | 
O=C(Cc1cccc(Br)c1)N[C@H]1CCOC1=O [C8] | 55 | -43 |  | 30 | -65 | 68 | 70 | 73 | 63 | 59 | 97 |  |  |  | 
Cc1cccc(CC(=O)N[C@H]2CCOC2=O)c1 [E1] | 25 | 1 |  | 12 | 2 | 78 | 5 | 74 | 6 | 62 | 13 |  |  |  | 
O=C(Cc1ccccc1)N[C@H]1CCOC1=O [C1] | 17 | -13 |  | 7 | -61 | 14 | 3 | 4 | 6 | 11 | 21 |  |  |  | 
CCCCCC(=O)CC(=O)N[C@H]1CCOC1=O [OOHL, 3-(oxo)-octanoyl HL, reference compound] | 100 | -89 | strongly activated | 91 | -138 | 63 | 24 | 65 | 29 | 26 | 78 |  |  |  | 
O=C(Cc1ccc(Cl)cc1)N[C@H]1CCOC1=O [C5, 4-Cl PHL] | -1 | -3 | nearly inactive | 3 | 2 | 75 | 3 | 78 | 5 | 48 | 29 |  |  |  | 
O=C(Cc1cccc2ccccc12)N[C@H]1CCOC1=O [E13] | -11 | -2 |  | 0.5 | -11 | 84 | 3 | 69 | 7 | -6 | 95 |  |  |  | 
O=C(Cc1cc(C(F)(F)F)cc(C(F)(F)F)c1)N[C@H]1CCOC1=O [E9] | 60 | -67 |  | 41 | -17 | 0 | 107 | 4 | 9 | 16 | 15 |  |  |  | 
CCCCCCCC(=O)N[C@H]1CCOC1=O [OHL, octanoyl HL, reference compound] | 98 | -95 | strongly activated; also recorded: agonized EsaR | 91 | -40 | 86 | 25 | 78 | 19 | 38 | 79 |  |  |  | 
CCCCCCCCCCCCCCCC(=O)N[C@H]1CCOC1=O [hDHL, reference compound] | 25 | -11 |  | 22 | -71 | 27 | 2 | 4 | 0 | 7 | 11 |  |  |  | 
CCCC(=O)N[C@H]1CCOC1=O [BHL, reference compound] | 26 | -22 |  | 6 | -46 | 43 | 0 | 48 | 0 | 19 | 17 |  |  |  | 
O=C(Cc1ccccc1I)N[C@H]1CCOC1=O [C12] | -9 | -12 |  | 9 | 4 | 63 | 7 | 65 | 11 | 55 | 24 |  |  |  | 
O=C(Cc1cccc(Cl)c1)N[C@H]1CCOC1=O [C6] | 49 | -40 |  | 29 | -58 | 65 | 61 | 63 | 49 | 54 | 81 |  | ≥ 125 | ≥ 216 | 
O=C(Cc1cccc(I)c1)N[C@H]1CCOC1=O [C11, 3-iodo PHL] | 65 | -57 | agonized EsaR | 44 | -56 | 78 | 28 | 83 | 32 | 63 | 61 |  |  |  | ~300
O=C(N[C@H]1CCOC1=O)c1ccccc1 [B8] | 2 | -4 |  | 6 | -4 | 34 | 2 | 37 | 0 | 23 | 6 |  |  |  | 
